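1) Cells in 96-well plates. 2) Compound, 48 h, 5 concentrations. 3) Linear interpolation between surrounding doses. 4) Unreached endpoint = highest concentration. Abbreviation: GI50, concentration required for 50% inhibition of growth.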 Activity calls are given as the source filed them. No stated cut-off is given here; in the data, active = GI50 up to about 1.1 µM and inactive = higher.
Experiments:
Experiment in all cases: NCI-60 cell line screen, 48 h
UO-31 = system: UO-31
A549 = system: A549
HOP-92 = system: HOP-92
SF-268 = system: SF-268
CCRF-CEM = system: CCRF-CEM
TK-10 = system: TK-10
SNB-75 = system: SNB-75
OVCAR-3 = system: OVCAR-3
SK-MEL-5 = system: SK-MEL-5
MOLT-4 = system: MOLT-4
M14 = system: M14
786-0 = system: 786-0
IGROV-1 = system: IGROV-1
HCT-116 = system: HCT-116
OVCAR-8 = system: OVCAR-8
PC-3 = system: PC-3
DU-145 = system: DU-145
MDA-MB-435 = system: MDA-MB-435

Measured: GI50

CCN(CC)c1oc(N(CC)CC)c(C(=O)Nc2ccccn2)c(=O)c1C(C)=O
inactive: UO-31 > 100 µM | A549 > 100 µM | HOP-92 > 100 µM | SF-268 90.8 µM | CCRF-CEM > 100 µM | TK-10 > 100 µM | SNB-75 > 100 µM | OVCAR-3 > 100 µM | SK-MEL-5 > 100 µM | MOLT-4 > 100 µM | M14 > 100 µM | 786-0 > 100 µM | IGROV-1 > 100 µM | HCT-116 > 100 µM | OVCAR-8 > 100 µM

CC1CNC(NS(=O)(=O)c2cc(C(=O)Nc3ccc(Cl)cc3)c(Cl)cc2S)=NN1 (stereo not given)
inactive: UO-31 49.7 µM | A549 28.6 µM | PC-3 30 µM | DU-145 30.2 µM | MDA-MB-435 23.4 µM | SF-268 11.5 µM | CCRF-CEM 34.9 µM | TK-10 81.7 µM | OVCAR-3 28.2 µM | SK-MEL-5 14.1 µM | MOLT-4 52.8 µM | M14 21.7 µM | 786-0 42.1 µM | IGROV-1 36.1 µM | HCT-116 27 µM | OVCAR-8 25.4 µM

CCCC[C@H](CCc1ccccc1)N(C(=O)OC)N1CCC[C@H]1COC
inactive: UO-31 16.7 µM | A549 24.8 µM | HOP-92 18.6 µM | SF-268 19.5 µM | CCRF-CEM 15.5 µM | TK-10 26.4 µM | SNB-75 35.1 µM | OVCAR-3 18.3 µM | SK-MEL-5 18.3 µM | MOLT-4 24.2 µM | M14 26 µM | 786-0 21.4 µM | IGROV-1 20.9 µM | HCT-116 13.6 µM | OVCAR-8 27.5 µM

O=S(=O)(c1ccccc1)n1cc(C[P+](c2ccccc2)(c2ccccc2)c2ccccc2)c2ccccc21
inactive: UO-31 3.38 µM | A549 10.9 µM | HOP-92 1.87 µM | SF-268 5.66 µM | CCRF-CEM 2.43 µM | TK-10 3.69 µM | SNB-75 3.25 µM | OVCAR-3 2.95 µM | SK-MEL-5 1.67 µM | MOLT-4 4.91 µM | M14 2.64 µM | 786-0 5.04 µM | IGROV-1 2.08 µM | HCT-116 3.81 µM | OVCAR-8 2.81 µM

[N-]=[N+]=CC(=O)OCC1SCCCS1
inactive: UO-31 > 100 µM | PC-3 > 100 µM | HOP-92 > 100 µM | DU-145 > 100 µM | MDA-MB-435 > 100 µM | SF-268 > 100 µM | CCRF-CEM > 100 µM | TK-10 > 100 µM | OVCAR-3 > 100 µM | SK-MEL-5 > 100 µM | MOLT-4 > 100 µM | 786-0 > 100 µM | IGROV-1 > 100 µM | HCT-116 > 100 µM

COC(=O)[C@@]1(C)/C(=N/NS(=O)(=O)c2ccc(C)cc2)CCC[C@@H]1C
inactive: UO-31 > 100 µM | A549 > 100 µM | HOP-92 > 100 µM | SF-268 > 100 µM | CCRF-CEM 27.8 µM | TK-10 > 100 µM | SNB-75 > 100 µM | OVCAR-3 > 100 µM | SK-MEL-5 > 100 µM | MOLT-4 > 100 µM | M14 > 100 µM | 786-0 > 100 µM | IGROV-1 > 100 µM | HCT-116 > 100 µM | OVCAR-8 > 100 µM

NCCCCNc1ccc2c(=O)[nH][nH]c(=O)c2c1
inactive: UO-31 > 100 µM | A549 > 100 µM | HOP-92 > 100 µM | SF-268 > 100 µM | CCRF-CEM > 100 µM | TK-10 > 100 µM | SNB-75 > 100 µM | OVCAR-3 > 100 µM | SK-MEL-5 > 100 µM | MOLT-4 > 100 µM | M14 > 100 µM | 786-0 > 100 µM | IGROV-1 > 100 µM | HCT-116 > 100 µM | OVCAR-8 > 100 µM

O=C1C=CC(=O)C2=C1[C@@H](O)C1CC=CC3C(=O)O[C@@H]2C31 (stereo not given in full)
inactive: UO-31 43.1 µM | A549 > 52.7 µM | HOP-92 26.2 µM | SF-268 43.1 µM | CCRF-CEM 8.2 µM | TK-10 28.2 µM | SNB-75 24.9 µM | OVCAR-3 21 µM | SK-MEL-5 20.6 µM | MOLT-4 20 µM | M14 19.6 µM | 786-0 26.2 µM | IGROV-1 14.8 µM | HCT-116 19.8 µM | OVCAR-8 39.5 µM

CC(=O)c1ccccc1NC(=O)C(=O)C(C(=O)c1ccc2ccccc2c1)C1OC(=O)c2ccccc21 (stereo not given)
inactive: UO-31 13.3 µM | A549 19.3 µM | HOP-92 12.4 µM | SF-268 9.27 µM | CCRF-CEM 4.42 µM | TK-10 34 µM | SNB-75 8.95 µM | OVCAR-3 9.82 µM | SK-MEL-5 11.4 µM | MOLT-4 3.67 µM | M14 16.4 µM | 786-0 6.61 µM | IGROV-1 16.1 µM | HCT-116 13.1 µM | OVCAR-8 11.6 µM

From ChEMBL document CHEMBL1201862, “PubChem BioAssay data set” (2004)
